Measurements published in the NIST ThermoML archive (doi:10.1016/j.tca.2012.07.004).

Assay: xn = mol fraction of the nth substance listed
Details: 101 kPa, Liquid; for mass density: Vibrating tube method; for viscosity: Vibrating wire viscometry; for speed of sound: ultrasonic interferometer

C[NH+](C)C.O=S(=O)([O-])O [trimethylammonium hydrogen sulfate] + CN1CCCC1=O
Details | mass density, 298.15 K [kg/m3] | mass density, 303.15 K [kg/m3] | speed of sound, 298.15 K [m/s] | speed of sound, 303.15 K [m/s] | viscosity, 298.15 K [mPa·s] | viscosity, 303.15 K [mPa·s]
x1 = 0.0183 | 1041.67 | 1037.3 | 1572 | 1552 | 2.72 | 2.02
x1 = 0.0369 | 1053.11 | 1048.09 | 1573 | 1553 | 3.99 | 2.9
x1 = 0.0964 | 1086.47 | 1080.22 | 1576 | 1556 | 6.59 | 5.22
x1 = 0.138 | 1103.99 | 1098.35 | 1578 | 1558 | 8.37 | 6.83
x1 = 0.2014 | 1128.96 | 1122.72 | 1580 | 1562 | 10.5 | 8.56
x1 = 0.3115 | 1160.07 | 1154.59 | 1584 | 1568 | 12.1 | 9.88
x1 = 0.3587 | 1170.49 | 1161.24 | 1586 | 1571 | 12.2 | 9.93
x1 = 0.4311 | 1187.05 | 1177.45 | 1588 | 1573 | 11.9 | 9.66
x1 = 0.5579 | 1214.39 | 1204.95 | 1590 | 1577 | 10.3 | 8.28
x1 = 0.6955 | 1257.13 | 1247.15 | 1591 | 1575 | 8.34 | 6.8
x1 = 0.775 | 1295.34 | 1283.75 | 1584 | 1572 | 7.25 | 6.01
x1 = 0.843 | 1334.58 | 1321.99 | 1581 | 1571 | 6.05 | 5.07
x1 = 0.9375 | 1403.82 | 1389.78 | 1573 | 1567 | 5.39 | 4.66
x1 = 0.97 | 1439.41 | 1426.11 | 1566 | 1563 | 5.24 | 4.59
x1 = 1 | 1467.58 | 1463.56 | 1564 | 1560 | 5.1 | 4.48
